Source: patent publication US20230278972A1, “SUBSTITUTED HALOALKYL SULFONANILIDE HERBICIDES” (FMC Corporation, priority 2020, published 2023)

Columns and labels:
Assay type in all cases: in vivo
[1] = test system: blackgrass (Alopecurus myosuroides); test: Test A1 preemergence, blackgrass
Procedure, shortened: (§1)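 Test compounds were formulated in a non-phytotoxic solvent mixture containing a surfactant. For preemergence, seeds sown in a loam soil–sand blend received a directed soil spray. For postemergence, potted plants in the same soil, 2 to 10 cm tall at the one- to two-leaf stage, were sprayed.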

[2] = test system: ragweed (common ragweed, Ambrosia artemisiifolia); test: Test A1 postemergence, ragweed; details: Postemergence
Procedure, shortened: as §1

[3] = test system: ragweed (common ragweed, Ambrosia artemisiifolia); test: Test A1 preemergence, ragweed
Procedure, shortened: as §1

corn (Zea mays) = test: Test A1 preemergence, corn
Procedure, shortened: as §1

[4] = test system: horseweed (Erigeron canadensis); test: Test A1 postemergence, horseweed; details: Postemergence
Procedure, shortened: (§2)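 Seeds were first planted into a blend of loam soil and sand and given a preemergence directed soil spray. In parallel, pots of the same soil were sown for postemergence application once plants reached 2 to 10 cm and the one- to two-leaf stage. Both used surfactant-containing non-phytotoxic solvent formulations.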

[5] = test system: Pigweed, Palmer (palmer amaranth, palmer pigweed, Amaranthus palmeri); test: Test A1 postemergence, Pigweed, Palmer; details: Postemergence
Procedure, shortened: as §1

[6] = test system: goosegrass (Eleusine indica); test: Test A1 postemergence, goosegrass; details: Postemergence
Procedure, shortened: as §2

[7] = test system: Oat, Wild (wild oat, Avena fatua); test: Test A1 postemergence, Oat, Wild; details: Postemergence
Procedure, shortened: as §1

[8] = test system: wheat (Triticum aestivum); test: Test A1 preemergence, wheat
Procedure, shortened: as §1

[9] = test system: goosegrass (Eleusine indica); test: Test A1 preemergence, goosegrass
Procedure, shortened: as §1

[10] = 31 g ai/ha, 0 to 100 scale (0 no effect, 100 complete control)
[11] = 125 g ai/ha, 0 to 100 scale, 0 no effect, 100 complete control
[12] = 31 g ai/ha, 0 to 100 scale (0 no effect, 100 complete control), 10 days

| Structure (SMILES) | Plant response rating, Blackgrass [1, 10] | Plant response rating, Blackgrass [1, 11] | Plant response rating, Ragweed [2, 12] | Plant response rating, Ragweed ([2]; 125 g ai/ha, 0 to 100 scale) | Plant response rating, Ragweed [3, 10] | Plant response rating, Ragweed [3, 11] | Plant response rating, Corn (corn (Zea mays); [10]) | Plant response rating, Corn (corn (Zea mays); [11]) | Plant response rating, Horseweed [4, 12] | Plant response rating, Horseweed ([4]; 125 g ai/ha, 0 to 100 scale) | Plant response rating, Pigweed, Palmer [5, 12] | Plant response rating, Pigweed, Palmer ([5]; 125 g ai/ha, 0 to 100 scale) | Plant response rating, Goosegrass [6, 12] | Plant response rating, Goosegrass ([6]; 125 g ai/ha, 0 to 100 scale) | Plant response rating, Oat, Wild [7, 12] | Plant response rating, Oat, Wild ([7]; 125 g ai/ha, 0 to 100 scale) | Plant response rating, Wheat [8, 10] | Plant response rating, Wheat [8, 11] | Plant response rating, Goosegrass [9, 10] | Plant response rating, Goosegrass [9, 11] |
| --- | --- | --- | --- | --- | --- | --- | --- | --- | --- | --- | --- | --- | --- | --- | --- | --- | --- | --- | --- | --- |
| Cc1c(NS(=O)(=O)C(F)(F)F)cc(C2=NOC3CCCC23)c(C)c1C (stereo not drawn) [Compound 335] | 0 | 0 | 50 | 80 | 20 | 90 | 0 | 60 | 40 | 70 | 20 | 30 | 0 | 10 | 0 | 0 | 0 | 0 | 30 | 70 |
| Cc1c(C2=NO[C@@H]3CCC[C@H]23)cc(N(COC(=O)C(C)(C)C)S(=O)(=O)C(F)(F)F)c(C)c1C [Compound 336, [[(Trifluoromethyl)sulfonyl][2,3,4-trimethyl-5-[(3aR,6aR)-3a,5,6,6a-tetrahydro-4H-cyclopent[d]isoxazol-3-yl]phenyl]amino]methyl 2,2-dimethylpropanoate] | 0 | 0 | 50 | 80 | 0 | 50 | 0 | 0 | 0 | 60 | 20 | 50 | 0 | 0 | 0 | 0 | 0 | 0 | 30 | 70 |
| CCOC1CC(c2cc(N(COC(=O)C(C)(C)C)S(=O)(=O)C(F)(F)F)c(C)cc2C)=NO1 (stereo not drawn) [Compound 339] | 0 | 0 | 40 | 70 | 20 | 50 | 0 | 0 | 100 | 100 | 0 | 20 | 0 | 30 | 0 | 0 | 0 | 0 | 0 | 90 |
| Cc1cc(C)c(C2=NOC3OCCC23)cc1NS(=O)(=O)C(F)(F)F (stereo not drawn) [Compound 349] | 50 | 80 | 70 | 90 | 30 | 90 | 20 | 100 | 90 | 100 | 20 | 70 | 90 | 90 | 0 | 30 | 20 | 70 | 90 | 100 |
| Cc1cc(C)c(N(COC(=O)C(C)(C)C)S(=O)(=O)C(F)(F)F)cc1C(=O)N1CCC(F)(F)CC1 [Compound 350] | 0 | 0 | 80 | 90 | 20 | 80 | 0 | 0 | 90 | 100 | 30 | 40 | 10 | 80 | 0 | 0 | 0 | 10 | 30 | 90 |
| CCOC(=O)N(c1cc(C(=O)N2CCC(F)(F)CC2)c(C)cc1C)S(=O)(=O)C(F)(F)F [Compound 351] | 10 | 50 | 70 | 90 | 50 | 90 | 0 | 0 | 100 | 90 | 10 | 20 | 40 | 90 | 0 | 10 | 10 | 50 | 40 | 100 |
| Cc1cc(C)c(N(COC(=O)C(C)(C)C)S(=O)(=O)C(F)(F)F)cc1C1=NOC2OCCC12 (stereo not drawn) [Compound 352] | 20 | 40 | 70 | 90 | 60 | 90 | 10 | 50 | 80 | 100 | 20 | 60 | 80 | 90 | 0 | 20 | 10 | 20 | 90 | 100 |
| Cc1cc(C)c(N(COC(=O)C(C)(C)C)S(=O)(=O)C(F)(F)F)cc1C(=O)N1CCC(C)CC1 [Compound 353] | 0 | 0 | 20 | 60 | 20 | 20 | 10 | 30 | 70 | 100 | 0 | 30 | 0 | 30 | 0 | 10 | 0 | 0 | 20 | 70 |
| CCOC(=O)N(c1cc(C(=O)N2CCC(C)CC2)c(C)cc1C)S(=O)(=O)C(F)(F)F [Compound 354] | 0 | 0 | 40 | 50 | 20 | 50 | 0 | 0 | 80 | 90 | 0 | 10 | 0 | 100 | 0 | 10 | 0 | 30 | 70 | 100 |
